Values quoted from earlier work as cited in patent US6974685B2, “High production method of prenyl alcohol using saccharomyces cells” (Toyota Jidosha Kabushiki Kaisha 1, priority 2000, dated 2005).

System: erg mutant of Saccharoinyces cerevisiae
Conditions: Curr. Genet., 18, 41-46 (1990)

## CC(C)=CCCC(C)=CCCC(C)=CCO [FOH, farnesol]
  farnesol production: 1 mg/L
